1 compound from PMC4506373 (Journal of Ginseng Research, 2014) can be followed below.

In this test the test system is special ginsenosidase type-I. The conditions noted are these: 0.02 M acetate buffer pH 5.0, 45°C; hydrolysis of 3-O-Glc of Rb2 to C-O.

Molecules are shown by their SMILES.

Take `CC(C)=CCC[C@](C)(O[C@@H]1O[C@H](CO[C@@H]2OC[C@H](O)[C@H](O)[C@H]2O)[C@@H](O)[C@H](O)[C@H]1O)[C@H]1CC[C@]2(C)[C@@H]1[C@H](O)C[C@@H]1[C@@]3(C)CC[C@H](O[C@@H]4O[C@H](CO)[C@@H](O)[C@H](O)[C@H]4O[C@@H]4O[C@H](CO)[C@@H](O)[C@H](O)[C@H]4O)C(C)(C)[C@@H]3CC[C@]12C` [Rb2]: the Michaelis-Menten constant (Km) – broadly, the substrate concentration at which the rate is half of its maximum – came out at 20.4 ± 2.1 mM.
